Measured values taken from PubChem BioAssay (NCI).
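The compound was tested at five concentrations on cells cultured in 96-well plates, with a 48-hour exposure period. Abbreviation: GI50, concentration required for 50% inhibition of growth. TGI: total growth inhibition.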

How the values were obtained:
Assay in all cases: NCI-60 cell line screen, 48 h
CAKI-1 renal = test system: CAKI-1 renal
HCT-116 colon = test system: HCT-116 colon
KM12 colon = test system: KM12 colon
M14 melanoma = test system: M14 melanoma
MDA-MB-231 breast = test system: MDA-MB-231 breast
NCI-H460 lung = test system: NCI-H460 lung
OVCAR-3 ovarian = test system: OVCAR-3 ovarian
PC-3 prostate = test system: PC-3 prostate
SK-MEL-5 melanoma = test system: SK-MEL-5 melanoma
T-47D breast = test system: T-47D breast

| Compound | TGI (CAKI-1 renal) [µM] | TGI (HCT-116 colon) [µM] | TGI (KM12 colon) [µM] | TGI (M14 melanoma) [µM] | TGI (MDA-MB-231 breast) [µM] | TGI (NCI-H460 lung) [µM] | TGI (OVCAR-3 ovarian) [µM] | TGI (PC-3 prostate) [µM] | TGI (SK-MEL-5 melanoma) [µM] | TGI (T-47D breast) [µM] | GI50 (CAKI-1 renal) [µM] | GI50 (HCT-116 colon) [µM] | GI50 (KM12 colon) [µM] | GI50 (M14 melanoma) [µM] | GI50 (MDA-MB-231 breast) [µM] | GI50 (NCI-H460 lung) [µM] | GI50 (OVCAR-3 ovarian) [µM] | GI50 (PC-3 prostate) [µM] | GI50 (SK-MEL-5 melanoma) [µM] | GI50 (T-47D breast) [µM] |
| --- | --- | --- | --- | --- | --- | --- | --- | --- | --- | --- | --- | --- | --- | --- | --- | --- | --- | --- | --- | --- |
| COc1cc2[nH]c3c(c2cc1OC)CCN[C@@]31CC[C@@]2(CC3c4c(cc(OC)c(O)c42)CCN3C)C[C@@H]1OC (stereo not given in full) | > 79.5 | > 87.4 | > 85 | 34.1 | > 100 | > 100 | > 94.8 | > 100 | 30.3 | 51.8 |  |  |  |  |  |  |  |  |  |  |
| Cc1[nH]nc(C(F)(F)F)c1Cc1sc2c(c1C(=O)N1C[C@](C)(O)CO1)c(=O)n(C)c(=O)n2C(C)C | > 100 | > 100 | > 100 | > 100 | > 100 | > 100 | > 100 | > 100 | > 100 | > 100 | > 100 | > 100 | > 100 | > 100 | > 100 | > 100 | > 100 | > 100 | > 100 | > 100 |
| Cn1nc(C(F)(F)F)cc1-c1cc(Cl)c(OCc2ccc(Cl)cc2)c(-c2ccc(Cl)c(C(F)(F)F)c2)c1O | 3.49 | 1.86 | 5.07 | 2.93 | 2.43 | 2.21 | 6.12 | 5.09 | 1.74 | 2.96 | 1.11 | 0.691 | 1.38 | 1.16 | 0.958 | 0.852 | 1.13 | 0.709 | 0.777 | 0.435 |
| CC1=CC2(C)/C=C(C)/C=C\CC(O)/C=C3/C=CC(=C4C(=O)OC2(CC1C)C4=O)OC3 (stereo not given) | 3.63 | 5.02 | 10.5 | 9.21 | 4.25 | 15.7 | 2.5 | 7.89 | 11.6 | 6.52 | 1.65 | 0.541 | 3.17 | 2.8 | 1.99 | 3.84 | 1.18 | 1.45 | 3.07 | 1.63 |
| Clc1ccc2c(NC3CCC(N4CCCCC4)CC3)ccnc2c1 (stereo not given) | 50.7 | 44.7 | 51.9 | 18.1 | 40 | 33.2 | 59.2 | > 100 | 30.6 | > 100 |  |  |  |  |  |  |  |  |  |  |
| CC1Cc2c(Cl)ncnc2N(C)c2ccccc21 (stereo not given) | > 100 | 80.3 | > 100 | 17.3 | 5.05 | > 100 | 20.1 | 66.9 | 3.62 | 37.4 | 3.39 | 3.96 | 3.33 | 2.77 | 2.39 | 3.87 | 3.4 | 3.9 | 1.85 | 4.29 |
| COc1cc(OC)c(/C=C/C(=O)c2c(OC)cc(OC)cc2OC)c(OC)c1 | > 37.2 | 10.2 | 2.57 | 1.78 | 31.1 | 7.74 | 0.8 | > 100 | 11.2 | > 100 | 1.66 | 0.6 | 0.469 | 0.38 | 1.51 | 0.976 | 0.233 | 0.992 | 0.818 | 2.01 |
